Assay results: paper PMC6339567 (Analytical chemistry, 2018)

Legend:
[1] = test system: confluent monolayers of primary murine colonic epithelial cells; type: in vitro ADME, mouse; conditions: upper bound for all monolayers with TEER >300 Ω cm^2 (n=6)
[2] = biological target: P-gp (Mus musculus, UniProt P21447); assay: in vitro
[3] = in vitro; conditions: mouse
[4] = test system: confluent monolayers of primary murine colonic epithelial cells; conditions: Figure 4A

Sequence of P-gp (P21447 whole entry): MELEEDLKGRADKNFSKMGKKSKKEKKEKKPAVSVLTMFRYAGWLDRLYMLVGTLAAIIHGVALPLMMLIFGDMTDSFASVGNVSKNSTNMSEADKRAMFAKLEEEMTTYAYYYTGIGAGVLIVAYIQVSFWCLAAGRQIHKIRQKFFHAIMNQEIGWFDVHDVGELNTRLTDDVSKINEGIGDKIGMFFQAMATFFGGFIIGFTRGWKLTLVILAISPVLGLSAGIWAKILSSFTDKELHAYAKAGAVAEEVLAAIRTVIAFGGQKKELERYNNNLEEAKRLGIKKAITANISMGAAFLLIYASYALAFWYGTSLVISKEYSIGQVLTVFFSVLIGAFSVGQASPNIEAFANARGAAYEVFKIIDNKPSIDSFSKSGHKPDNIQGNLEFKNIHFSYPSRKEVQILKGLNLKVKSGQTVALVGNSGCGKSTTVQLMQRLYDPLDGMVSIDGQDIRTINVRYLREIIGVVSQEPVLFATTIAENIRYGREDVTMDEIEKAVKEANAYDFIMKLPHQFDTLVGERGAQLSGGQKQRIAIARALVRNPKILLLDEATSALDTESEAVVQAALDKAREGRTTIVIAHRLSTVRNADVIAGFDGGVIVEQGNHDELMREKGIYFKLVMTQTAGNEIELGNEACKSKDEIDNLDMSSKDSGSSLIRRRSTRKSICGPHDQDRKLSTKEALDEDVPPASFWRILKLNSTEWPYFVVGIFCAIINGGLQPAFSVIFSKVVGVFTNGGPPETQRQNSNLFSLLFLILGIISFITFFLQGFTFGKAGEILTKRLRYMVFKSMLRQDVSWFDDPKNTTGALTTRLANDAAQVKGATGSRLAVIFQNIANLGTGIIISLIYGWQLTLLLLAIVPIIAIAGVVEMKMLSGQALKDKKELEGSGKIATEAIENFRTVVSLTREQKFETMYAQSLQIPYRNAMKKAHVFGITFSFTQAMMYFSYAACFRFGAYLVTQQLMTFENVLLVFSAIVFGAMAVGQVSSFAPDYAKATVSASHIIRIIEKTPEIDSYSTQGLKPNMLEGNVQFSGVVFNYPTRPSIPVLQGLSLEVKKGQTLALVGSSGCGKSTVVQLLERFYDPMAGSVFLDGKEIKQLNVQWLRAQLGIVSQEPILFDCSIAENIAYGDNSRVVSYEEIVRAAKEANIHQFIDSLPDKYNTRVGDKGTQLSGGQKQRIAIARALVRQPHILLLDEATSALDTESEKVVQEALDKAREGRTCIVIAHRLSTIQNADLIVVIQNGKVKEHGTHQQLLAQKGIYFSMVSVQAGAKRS

In the case of lucifer yellow [LY], the “Papp for LY, all monolayers with TEER >300 Ω cm^2” value [1] is reported as less than 0.45 ×10⁻⁶ cm/s.
For `COC(=O)c1ccccc1-c1c2ccc(=N)cc-2oc2cc(N)ccc12` [Rh123, rhodamine 123], the efflux ratio at 2 h, 10 µM [2] was 7.
In the case of `CC(C)NCC(O)COc1cccc2ccccc12` (stereo not shown) [propranolol], the Papp at 3 h, 10 µM [3] is reported as 9.69 ×10⁻⁶ cm/s and the “permeability across day-5 monolayers (in words)” value [4] is reported as “high Papp”.
